Read-outs that look alike come from different tables or passages of the source.
Assays:
[1] = UPLC/ESI-tqMS time profile of 2,6-DCQ and its degradation products in simulated seawater (pH 8.2, darkness); OH-DCQ formation; conditions: 2,6-DCQ degradation, pH 8.2, darkness
Experimental: A Waters UPLC system coupled with ESI-tqMS was used to characterize the degradation products of 2,6-DCQ. The UPLC separation was performed using an HSS T3 column (100 × 2.1 mm, 1.8 μm particle size, Waters) with a column temperature of 35 °C. A gradient eluent of methanol–water was applied at a flow rate of 0.4 mL min^−1. The gradient program was set as follows: methanol/water (v/v) ratio changed linearly from 5/95 to 90/10 in the first 8 min and then returned to 5/95 during 8.0‒8.1 min, which was held for 2.9 min for re-equilibration. The ESI-tqMS was set as follows: ESI negative mode, capillary voltage 2.8 kV, cone voltage 10–50 V (depending on analytes), cone gas flow 50 L h^−1, source temperature 120 °C, desolvation temperature 400 °C, desolvation gas flow 800 L h^−1, collision energy 15–50 eV (depending on analytes), collision gas (argon) flow 0.25 mL min^−1, and mass resolution 15 (1-unit resolution).
The degradation of 2,6-DCQ in seawater was simulated by adding 10 mg L^−1 2,6-DCQ to 50 mL ultrapure water, which was adjusted to pH 8.2 with 5 mM sodium carbonate (to simulate the alkalinity in seawater and also to be compatible with the subsequent UPLC/ESI-tqMS analysis). The sample was kept in darkness for 0–24 h, during which the pH of the sample was maintained at 8.1 ± 0.1. At a designated reaction time, 7.5 μL of the sample was injected into the UPLC system. For a nonhalogenated degradation product, the selected ion recording (SIR) mode with a dwell time of 0.05 s was adopted to obtain the retention time. For halogenated degradation products, the multiple reaction monitoring mode with a dwell time of 0.05 s was used to obtain the retention time and the isotopic abundance ratio. To investigate the time-dependent profile of 2,6-DCQ and its degradation products, the peak area of each compound was determined using the SIR mode in the UPLC/ESI-tqMS analysis.
The second aliquot was subjected to analysis of total organic halogen to quantify the collected OH-DCQ. The determination of total organic halogen was based on Standard Method 5320B[52], with modifications of using off-line ion chromatography for halide detection. Briefly, the aliquot was dissolved in 100 mL ultrapure water and acidified to pH 2 with concentrated nitric acid[52] prior to adsorption onto pre-packed activated carbon columns (Mitsubishi). A three-channel adsorption module (TXA03C, Mitsubishi Chemical Analytech) was used for adsorption. An AQF-100 automatic quick furnace (Mitsubishi Chemical Analytech) was used for pyrolysis. During the pyrolysis process, the chlorine atoms in OH-DCQ were converted to chloride. The chloride ion concentration was determined using an ICS-3000 ion chromatography system (Dionex). 2,6-DCQ was used as a standard compound for measuring total organic halogen to determine the recovery of the analysis. The total organic halogen analysis was conducted in duplicate.

E. coli (ATCC 25922) = assay: Inactivation of E. coli by disinfectants (membrane filter enumeration, contact time 5 min); format: cell-based, Escherichia coli; conditions: for Log reduction (Mean ± SD): E. coli; for Log reduction (Mean ± SD) / E. coli inactivation rate constant k: pH 7.2, contact time 5 min; for log reduction at 3000 µg/mL: Escherichia coli, ATCC25922, 5 min, dose 3000 mg L-1, 5 min, read-out: Log (N/N0)
Experimental: The chemicals and reagents used are detailed in Supplementary Note 1. The bacteria E. coli (ATCC 25922) and S. aureus (ATCC 25923) were cultured aerobically in Luria-Bertani broth (Sigma-Aldrich) and Tryptone Soya broth (Oxoid), respectively, at 37 °C for 16 h. The fungus C. albicans (ATCC 14053) was aerobically cultured in Sabouraud Dextrose broth (Difco) at 37 °C for 24 h. The microorganism cells were harvested by centrifugation at 1200×g (10 min, 4 °C) and resuspended in phosphate-buffered saline (PBS, 10 mM, pH 7.2). The disinfection experiments were performed in PBS solutions (10 mM, pH 7.2) with an initial concentration of E. coli, S. aureus, or C. albicans of 10^6‒10^7 cells per milliliter. A contact time of 5 min was used in accordance with the recommended time range of 0.25–10 min by USEPA for surface disinfection. Preliminary tests were conducted to determine the appropriate range of DBP doses. The appropriate dose range was established when the lowest and highest doses could achieve <1-log and >3-log of microbial inactivation, respectively. Based on the preliminary results, a series of doses of DBPs were added to the cell suspensions at room temperature (22 ± 1 °C). After the contact time of 5 min, the microorganism cells were enumerated following a membrane filter method. Briefly, serial 10-fold dilutions were conducted for the disinfected samples and the control sample without disinfection. Each diluted suspension was subjected to filtration through 0.45-μm membrane, which was then placed on a petri dish. The Petri dishes containing E. coli, S. aureus, and C. albicans were incubated in m-FC medium (Becton Dickinson & Co) at 45 °C for 24 h, in Tryptone Soya broth at 37 °C for 24 h and in Sabouraud Dextrose broth at 37 °C for 24 h, respectively. After incubation, the colony-forming units within a statistically reasonable range (20–80) were counted.
The impact of pH on the disinfection efficiencies of DBPs was examined. E. coli (ATCC 25922) was used as the test strain. The disinfection experiments were performed in 10 mM PBS solutions (pH 6.2, 7.2, and 8.2) with an initial E. coli concentration of 10^6‒10^7 cells per milliliter. To initiate the disinfection, a DBP was dosed with a bacteria suspension at a predetermined concentration. After the given contact time (5 min) at room temperature (22 ± 1 °C), the bacteria were enumerated following the membrane filter method. The bacteria concentrations in the 10 mM PBS solutions (pH 6.2, 7.2, and 8.2) without the addition of DBPs were used as controls.

SMILES: O=C1C=C(Cl)C(=O)C(OC2=C(Cl)C(=O)C(Cl)=CC2=O)=C1 [SIR 333]
- Peak area ([1]; 0 h): 25
- Peak area ([1]; 0.25 h): 566
- Peak area ([1]; 0.5 h): 1172
- Peak area ([1]; 0.75 h): 1708
- Peak area ([1]; 1 h): 2037
- Peak area ([1]; 1.25 h): 2462
- Peak area ([1]; 1.5 h): 2725
- Peak area ([1]; 1.75 h): 2905
- Peak area ([1]; 2 h): 3055
- Peak area ([1]; 2.25 h): 3331
- Peak area ([1]; 2.5 h): 3689
- Peak area ([1]; 2.75 h): 3558
- Peak area ([1]; 3 h): 3681
- Peak area ([1]; 3.25 h): 3675
- Peak area ([1]; 3.5 h): 3524
- Peak area ([1]; 3.75 h): 3765
- Peak area ([1]; 4 h): 3768
- Peak area ([1]; 4.5 h): 3886
- Peak area ([1]; 5 h): 4092
- Peak area ([1]; 5.5 h): 3835
- Peak area ([1]; 6 h): 3706
- Peak area ([1]; 8 h): 3365
- Peak area ([1]; 10 h): 2830
- Peak area ([1]; 12 h): 2308
- Peak area ([1]; 14 h): 1768
- Peak area ([1]; 16 h): 1379
- Peak area ([1]; 18 h): 1089
- Peak area ([1]; 20 h): 896
- Peak area ([1]; 24 h): 463

SMILES: O=C1C=C(Cl)C(=O)C=C1Cl [2,5-DCQ]
- Log reduction (Mean ± SD) (E. coli (ATCC 25922); dose 7.5 mg L−1): 0.77 ± 0.14
- Log reduction (Mean ± SD) (E. coli (ATCC 25922); dose 15 mg L−1): 3.78 ± 0.40

SMILES: O=C1C=C(Cl)C(=O)C=C1O [SIR 157, 3-hydroxyl-6-monochloro-1,4-benzoquinone]
- Peak area ([1]; 0 h): 131
- Peak area ([1]; 0.25 h): 1090
- Peak area ([1]; 0.5 h): 1291
- Peak area ([1]; 0.75 h): 1521
- Peak area ([1]; 1 h): 1656
- Peak area ([1]; 1.25 h): 1663
- Peak area ([1]; 1.5 h): 1773
- Peak area ([1]; 1.75 h): 1891
- Peak area ([1]; 2 h): 1830
- Peak area ([1]; 2.25 h): 2020
- Peak area ([1]; 2.5 h): 2128
- Peak area ([1]; 2.75 h): 2115
- Peak area ([1]; 3 h): 2124
- Peak area ([1]; 3.25 h): 2427
- Peak area ([1]; 3.5 h): 2418
- Peak area ([1]; 3.75 h): 2409
- Peak area ([1]; 4 h): 2447
- Peak area ([1]; 4.5 h): 2594
- Peak area ([1]; 5 h): 2821
- Peak area ([1]; 5.5 h): 2983
- Peak area ([1]; 6 h): 3514
- Peak area ([1]; 8 h): 4489
- Peak area ([1]; 10 h): 4560
- Peak area ([1]; 12 h): 4418
- Peak area ([1]; 14 h): 4868
- Peak area ([1]; 16 h): 4755
- Peak area ([1]; 18 h): 4648
- Peak area ([1]; 20 h): 5024
- Peak area ([1]; 24 h): 4289

SMILES: O=C(O)c1cc(Br)ccc1O [5-BSA, 5-bromosalicylic acid]
- log reduction at 3000 µg/mL (E. coli (ATCC 25922); pH 6.2, E. coli, pH 6.2): 0.221
- log reduction at 3000 µg/mL (E. coli (ATCC 25922); pH 7.2, E. coli, pH 7.2): 0.132
- log reduction at 3000 µg/mL (E. coli (ATCC 25922); pH 8.2, E. coli, pH 8.2): 0.331
- E. coli inactivation rate constant k (E. coli (ATCC 25922)): < 0.01 L mg‒1 h‒1

SMILES: O=C(O)c1cc(I)ccc1O [5-ISA, 5-iodosalicylic acid]
- log reduction at 3000 µg/mL (E. coli (ATCC 25922); pH 6.2, E. coli, pH 6.2): 0.247
- log reduction at 3000 µg/mL (E. coli (ATCC 25922); pH 7.2, E. coli, pH 7.2): 0.373
- log reduction at 3000 µg/mL (E. coli (ATCC 25922); pH 8.2, E. coli, pH 8.2): 0.282
- E. coli inactivation rate constant k (E. coli (ATCC 25922)): < 0.01 L mg‒1 h‒1

SMILES: O=C(O)c1cc(Cl)ccc1O [5-CSA, 5-chlorosalicylic acid]
- log reduction at 3000 µg/mL (E. coli (ATCC 25922); pH 6.2, E. coli, pH 6.2): 0.218
- log reduction at 3000 µg/mL (E. coli (ATCC 25922); pH 7.2, E. coli, pH 7.2): 0.273
- log reduction at 3000 µg/mL (E. coli (ATCC 25922); pH 8.2, E. coli, pH 8.2): 0.304
- E. coli inactivation rate constant k (E. coli (ATCC 25922)): < 0.01 L mg‒1 h‒1

From PMC11161644, “An effective and rapidly degradable disinfectant from disinfection byproducts” (Nature Communications, 2024)
